A short description of assay [1]: Inhibition of C-CBL (unknown origin). Further details: species or system Homo sapiens.
For another assay, the species on record is Homo sapiens. Description: Selectivity ratio of IC50 for c-CBL (unknown origin) to IC50 for CBL-B (unknown origin).
Assay [2] deals with E3 ubiquitin-protein ligase CBL-B (Homo sapiens, UniProt Q13191). Description: Inhibition of CBL-B (unknown origin).
Sequence of E3 ubiquitin-protein ligase CBL-B (Q13191 whole entry): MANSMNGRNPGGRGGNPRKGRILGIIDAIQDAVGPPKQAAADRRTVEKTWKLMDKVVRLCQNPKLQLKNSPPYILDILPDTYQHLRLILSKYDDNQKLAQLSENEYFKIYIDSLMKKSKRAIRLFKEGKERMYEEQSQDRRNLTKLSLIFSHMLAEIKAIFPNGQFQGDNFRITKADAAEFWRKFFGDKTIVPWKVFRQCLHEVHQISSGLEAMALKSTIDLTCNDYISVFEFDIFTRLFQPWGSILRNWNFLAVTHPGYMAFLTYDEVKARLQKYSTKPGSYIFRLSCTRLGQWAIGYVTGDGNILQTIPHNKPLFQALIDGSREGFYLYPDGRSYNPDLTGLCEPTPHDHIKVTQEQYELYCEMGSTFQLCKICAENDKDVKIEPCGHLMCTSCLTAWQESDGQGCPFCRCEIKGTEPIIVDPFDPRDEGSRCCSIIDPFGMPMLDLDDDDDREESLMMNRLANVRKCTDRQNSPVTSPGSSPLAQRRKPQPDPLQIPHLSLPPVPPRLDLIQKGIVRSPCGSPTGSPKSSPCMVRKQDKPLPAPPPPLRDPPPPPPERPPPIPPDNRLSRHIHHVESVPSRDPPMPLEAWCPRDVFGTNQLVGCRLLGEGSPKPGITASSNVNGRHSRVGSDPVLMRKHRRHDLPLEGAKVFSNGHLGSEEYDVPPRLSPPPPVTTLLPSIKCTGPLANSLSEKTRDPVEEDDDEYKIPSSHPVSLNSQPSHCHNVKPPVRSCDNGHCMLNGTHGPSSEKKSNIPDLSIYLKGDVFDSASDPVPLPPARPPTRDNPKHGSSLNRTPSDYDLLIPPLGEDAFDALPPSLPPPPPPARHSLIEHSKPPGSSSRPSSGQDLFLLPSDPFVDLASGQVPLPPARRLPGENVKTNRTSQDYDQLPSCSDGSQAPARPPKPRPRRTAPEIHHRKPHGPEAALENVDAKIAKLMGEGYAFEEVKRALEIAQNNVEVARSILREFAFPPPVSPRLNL

In the case of `CC1CC(c2cccc(N3C(=O)c4cc(CNC5(C)CCC5)cc5c(F)ccc3c45)c2)(c2nncn2C)C1` (configuration not stated), the results for the IC50 in assay [1] and in assay [2] were around 0.165 µM and around 0.0165 µM, respectively. The Ratio IC50 in the assay listed under Homo sapiens was determined as 10.

In the case of `CO[C@H]1C[C@@](c2cccc(N3Cc4c(cc(CNC5(C)CCC5)cc4C(F)F)C3=O)c2)(c2nncn2C)C1`, the IC50 (commonly the concentration that gives 50% inhibition) in assay [1] was around 0.15 µM; in assay [2], around 0.025 µM. Moreover, in the assay filed under Homo sapiens, the Ratio IC50 is 6.

`CC1CC(c2cccc(-c3nc4cc(CN5CCC[C@H](C)C5)cc(C(F)(F)F)c4[nH]3)c2)(c2nncn2C)C1` (some centres not stated): in assay [2], the IC50 is around 0.2 µM.

For the compound `C[C@H](c1cc(C(F)(F)F)c2nc(-c3cccc(CC4(c5nncn5C)COC4)c3)[nH]c2c1)N1CCC2(CC2)C1`, the IC50 is around 10 µM in assay [1] and around 0.2 µM in assay [2]. In addition, the Ratio IC50 in the assay filed under Homo sapiens stood at 50.

With `CC1CC(c2cccc(N3Cc4c(cc(CN5CCC[C@H](C)C5)cc4C(F)(F)F)C3=O)c2)(c2nncn2C)C1` (some centres not stated), the IC50 is around 0.02 µM in assay [1] and around 0.005 µM in assay [2]. Also, the Ratio IC50 in the assay filed under Homo sapiens worked out at 4.

Regarding `COCCNCc1cc(C(F)(F)F)c2oc(-c3cccc(-c4ccc(F)cc4-c4nncn4C)c3)nc2c1`, the IC50 in assay [1] is around 10 µM; in assay [2], around 0.2 µM. Also, the Ratio IC50 in the assay filed under Homo sapiens was found to be 50.

`Cn1cnnc1C1(c2cccc(N3Cc4c(cc(CNC5(C)CCC5)cc4C(F)(F)F)C3=O)c2)CC2(CC(F)(F)C2)C1`: the IC50 is around 0.12 µM in assay [1] and around 0.021 µM in assay [2]. Besides, the Ratio IC50 in the assay filed under Homo sapiens amounted to 6.

As to `Cn1cnnc1CC1(c2cccc(N3CC4=C(C(F)(F)F)C=C(CN5CCC(C)(F)CC5)CN4C3=O)c2)COC1`, the IC50 was around 0.06 µM in assay [1] and around 0.006 µM in assay [2]. In the assay listed under Homo sapiens, the Ratio IC50 was 10.

In turn, `CC1CC(c2cccc(-c3nc4c(C(F)(F)F)cc(CN5CCC[C@H](C)C5)cc4[nH]3)c2)(c2nncn2C)C1` (some centres not stated) gave an IC50 in assay [1] of around 10 µM. Moreover, in the assay listed under Homo sapiens, the Ratio IC50 was 50.

As for `Cn1cnnc1[C@H](c1cccc(N2Cc3c(Cl)cc(CNC4(C)CCC4)cc3C2=O)c1)[C@H]1C[C@@H](F)C1`, the IC50 in assay [1] was around 1.1 µM; in assay [2], around 0.17 µM. Moreover, the Ratio IC50 in the assay filed under Homo sapiens is 6.5.

Source of the values: ChEMBL document CHEMBL5584278, “Deciphering the Selectivity of CBL-B Inhibitors Using All-Atom Molecular Dynamics and Machine Learning” (ACS Med Chem Lett, 2024).
